As a reminder, the pIC50 is −log10 of the IC50, conventionally taken in molar units.

pIC50: −log10 of the molar value. Where two headings read alike, the source gives them in different places. Where only a bound is given, the exact number is not on record here.

The results in this text go back to patent US12116343B2, “Inhibitors of APOL1 and methods of using same” (Vertex Pharmaceuticals Incorporated, priority 2020, dated 2024).

The assay has as its target T1, G1 APOL1 (Homo sapiens, UniProt O14791, I384M/S342G).
T1 construct: expressed in transfected cells
T1 sequence (O14791 28-398 S342G/I384M): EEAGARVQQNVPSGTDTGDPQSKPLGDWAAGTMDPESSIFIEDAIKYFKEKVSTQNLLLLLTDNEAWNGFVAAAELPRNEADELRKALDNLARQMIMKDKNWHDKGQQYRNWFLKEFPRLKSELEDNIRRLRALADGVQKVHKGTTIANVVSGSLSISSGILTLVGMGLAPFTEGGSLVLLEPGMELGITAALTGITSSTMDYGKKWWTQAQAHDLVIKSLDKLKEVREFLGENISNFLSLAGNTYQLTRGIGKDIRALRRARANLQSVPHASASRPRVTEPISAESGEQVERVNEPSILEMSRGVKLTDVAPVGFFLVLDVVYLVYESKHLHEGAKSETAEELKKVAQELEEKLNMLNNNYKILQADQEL
Put plainly: Acute APOL1 Thallium Assay with inducible stable clones of HEK 293 cells. It is filed as cell-based. To be noted: read-out: Thallium Assay (IC50). The text has this: Acute APOL1 Thallium Assay with Inducible Stable Clones of HEK 293 Cells
Apolipoprotein L1 (APOL1) proteins form potassium-permeable cation pores in the plasma membrane. APOL1 risk variants (G1 and G2) induce greater potassium flux than G0 in HEK293 cells. This assay exploits the permeability of thallium (Tl+) through ligand-gated potassium channels. The dye produces a bright fluorescent signal upon binding to Tl+ conducted through potassium channels. The intensity of the Tl+ signal is proportional to the number of potassium channels in the open state. Therefore, it provides a functional indication of the potassium channel activities. During the initial dye-loading step, the Tl+ indicator dye as an acetoxymethyl (AM) ester enters the cells through passive diffusion. Cytoplasm esterases cleave the AM ester and relieve its active thallium-sensitive form. The cells are then stimulated with Tl+. The increase of fluorescence in the assay represents the influx of Tl+ into the cell specifically through the potassium channel (i.e. through APOL1 pores), providing a functional measurement of potassium channel/pore activity. The Thallium assay is conducted with cells expressing G1 APOL1.
APOL1 Cell Line (HEK T-Rex Stable Inducible Cell Line) • HEK T-Rex System • Tetracycline (Tet) inducible mammalian expression system. • Stably express the Tet repressor to regulate transcription. • Expression under the full-length CMV promoter. • APOL1 stable inducible cell line Clone used: G1 DC3.25
Tissue Culture Media • Cell Culture Medium • DMEM+10% FBS+P/S+5 μg/mL blasticidin+1 μg/mL puromycin. • 500 mL DMEM+55 mL FBS+5 mL P/S+280 μL blasticidin S HCl (10 mg/mL)+56 μL puromycin (10 mg/mL). • Cell Assay Medium • DMEM with 2% FBS+pen strep.
Instruments and Equipment • Nuaire cell culture hood, Cat. No. 540-600 • 37° C./5% CO2 incubator link to robotic arm, Liconic: STX110 • Molecular Devices FLIPR^Tetra High throughput cellular screening system, Cat. No. FT0324, Molecular Devices • ThermoFisher MultiDrop 384, Cat. No. 5840300 • Biotek Microfill, Cat. No. ASF1000A-4145 • BioRad TC10 cell counter, Cat. No. 145-0010 Assay Procedures
Cells Scaled Up from Frozen Vials • APOL1 G1 3.25 (HEK293 T-Rex) frozen vials: 5 million cells per vial • Step 1, Day 1: Defrost frozen vial into T-225. • Step 2, Day 5: (when 85% confluent): Split one T-225 at 3×10^6 cells per flask. • Step 3, Day 8: Splits cells to set up for the assay plates as described below.
T-Rex APOL1 HEK cells are split twice per week to keep the confluence state below 85% of the culture flask surface area. Cells can be kept until passage 25. • Cell Culture Medium • DMEM high glucose+10% FBS, +P/S, +5 μg/mL blasticidin, +1 μg/mL puromycin. • 500 mL DMEM, +55 mL FBS, +5 mL P/S, +280 μL blasicidin 10 mg/mL, +56 μL Puromycin 10 mg/mL. • Assay Media • Opti-MEM reduced serum medium from Invitrogen.
Preparation of Cell Assay Plates • Culture medium is removed from the x cm^2 T-flask by aspiration. • The cell monolayer is rinsed with PBS 1× at room temperature. PBS is removed by aspiration. • Cells are trypsinized using Trypsin. • The flasks are incubated at room temperature for 2-3 minutes. • Complete DMEM medium is then added. Cell suspension is then transferred to a 50 mL Falcon polypropylene tube. • Cells are then counted using a Biorad TC10 cell counter and the required amount of cells are centrifuged at 1200 RPM for 5 minutes. Required amount is 1.3×10^6 cells/mL APOL1 T-Rex HEK cells. • The pellet is suspended in the assay medium. • Using the MultiDrop, add 20 μL to each well (corresponds to 26000 cells total per well) of a 384-well black, transparent, flat bottom Poly-D coated plate. • Tetracycline as prepared in the following section is added to the cells before plating to induce APOL1 expression. • Plates are left at room temperature for 20 to 30 minutes before incubation at 37° C. and 5% CO2. […]

The mark [1] stands for this setting: HEK 293 T-Rex cells expressing G1 APOL1.

With `C[C@H](O)CNC(=O)C1CC(Cc2c(-c3ccc(F)cc3)[nH]c3c(F)cc(F)cc23)C1` (some centres unmarked) [Compound 300], the pIC50 (Table 24, Compounds 287 to 465) is less than 6.00.
Still for that read-out and setting: to `Cn1ccnc1CNC(=O)C1CC(Cc2c(-c3ccc(F)cc3)[nH]c3c(F)cc(F)cc23)C1` (centres unmarked) [Compound 338] belongs less than 6.00.
`CC1(C(=O)NC2(CO)CC2)CC(c2c(-c3ccc(F)cc3)[nH]c3c(F)cc(F)cc23)C1` (mixture of isomers) [Compound 281]: the pIC50 under setting [1] is greater than 6.60.
On the same count and under the same terms, to `O=C([C@H]1C[C@H](c2c(-c3ccc(F)cc3)[nH]c3c(F)cc(F)cc32)C1)N1CCOC(CO)C1` (some centres unmarked) [Compound 151] belongs less than 6.00.
Take `C[C@H](CO)NC(=O)CC1CC(c2c(-c3ccc(F)cc3)[nH]c3c(F)cc(F)cc23)C1` (some centres unmarked) [Compound 454]: the pIC50 (Table 24, Compounds 287 to 465) was less than 6.00.
`O=C(NCC1(O)COC1)NC[C@H]1C[C@H](c2c(-c3ccc(F)cc3)[nH]c3c(F)cc(F)cc32)C1` [Compound 398]: the pIC50 (Table 24, Compounds 287 to 465) was less than 6.00.
For `CN(CC1CC(c2c(-c3ccc(F)cc3)[nH]c3c(F)cc(F)cc23)C1)C(=O)N1CCC1` (centres unmarked) [Compound 432], the pIC50 (Table 24, Compounds 287 to 465) is less than 6.00.
Take `O=C(NCc1ncc[nH]1)C1CC(Cc2c(-c3ccc(F)cc3)[nH]c3c(F)cc(F)cc23)C1` (centres unmarked) [Compound 342]: the pIC50 (Table 24, Compounds 287 to 465) is less than 6.00.
`CC1(C)CC(NC(=O)NC[C@H]2C[C@H](c3c(-c4ccc(F)cc4)[nH]c4c(F)cc(F)cc43)C2)C(=O)O1` (some centres unmarked) [Compound 403]: for the setting “Table 24, Compounds 287 to 465”, the pIC50 is less than 6.00.
Take `COCC(C)NC(=O)O[C@H]1C[C@H](c2c(-c3ccc(F)cc3)[nH]c3c(F)cc(F)cc32)C1` (mixture of isomers) [Compound 360]: the pIC50 (Table 24, Compounds 287 to 465) is 6.00 to 6.60.
With `O=C(N[C@@H](CO)C(F)F)[C@H]1C[C@H](c2c(-c3ccc(F)cc3)[nH]c3c(F)cc(F)cc32)C1` [Compound 230], under setting [1], the pIC50 was greater than 6.60.
Regarding `O=C(NCc1ccc[nH]c1=O)C1CC(Cc2c(-c3ccc(F)cc3)[nH]c3c(F)cc(F)cc23)C1` (centres unmarked) [Compound 313], the pIC50 (Table 24, Compounds 287 to 465) was less than 6.00.
In the case of `Cc1cc(CNC(=O)O[C@H]2C[C@H](c3c(-c4ccc(F)cc4)[nH]c4c(F)cc(F)cc43)C2)on1` [Compound 385], the pIC50 (Table 24, Compounds 287 to 465) is less than 6.00.
The same measure, in the same setting: with `CC(CO)(CO)NC(=O)NC[C@H]1C[C@H](c2c(-c3ccc(F)cc3)[nH]c3c(F)cc(F)cc32)C1` [Compound 397] the figure was less than 6.00.
With `O=C1NC[C@@H](O)[C@@H]1NC(=O)[C@H]1C[C@@H](c2c(-c3ccc(F)cc3)[nH]c3c(F)cc(F)cc32)C1` [Compound 277], the negative-log IC50 (pIC50) under setting [1] was less than 6.00.
As to `O=C(NC1(CO)CCC1)[C@H]1C[C@@H](c2c(-c3ccc(F)cc3)[nH]c3c(F)cc(F)cc32)C1` [Compound 240], the negative logarithm of the IC50 (pIC50) under setting [1] was 6.00 to 6.60.
Regarding `O=C(NCC(O)CO)[C@H]1C[C@@H](c2c(-c3ccc(F)cc3)[nH]c3c(F)cc(F)cc32)C1` (some centres unmarked) [Compound 244], the pIC50 under setting [1] was less than 6.00.
As to `C[C@H](O)[C@H](CO)NC(=O)O[C@H]1C[C@H](c2c(-c3ccc(F)cc3)[nH]c3c(F)cc(F)cc32)C1` [Compound 366], under “Table 24, Compounds 287 to 465”, the pIC50 is less than 6.00.
In the case of `O=C(N[C@H]1COC[C@@H]1O)O[C@H]1C[C@H](c2c(-c3ccc(F)cc3)[nH]c3c(F)cc(F)cc32)C1` [Compound 389], under “Table 24, Compounds 287 to 465”, the pIC50 was less than 6.00.
On the same count and under the same terms, to `Cn1cncc1CNC(=O)C1CC(Cc2c(-c3ccc(F)cc3)[nH]c3c(F)cc(F)cc23)C1` (centres unmarked) [Compound 344] belongs less than 6.00; to `Cn1cnc(CNC(=O)O[C@H]2C[C@H](c3c(-c4ccc(F)cc4)[nH]c4c(F)cc(F)cc43)C2)c1` [Compound 368], less than 6.00.
Still for that read-out and setting: with `COCC1(CNC(=O)C2CC(Cc3c(-c4ccc(F)cc4)[nH]c4c(F)cc(F)cc34)C2)CC1` (centres unmarked) [Compound 319] the figure was less than 6.00.
As for `Cn1nccc1NC(=O)[C@H]1C[C@@H](c2c(-c3ccc(F)cc3)[nH]c3c(F)cc(F)cc32)C1` [Compound 247], the negative-log IC50 (pIC50) under setting [1] was less than 6.00.
Still for that read-out and setting: with `CC[C@@H](CO)NC(=O)[C@H]1C[C@@H](c2c(-c3ccc(F)cc3)[nH]c3c(F)cc(F)cc32)C1` [Compound 257] the figure was less than 6.00; with `O=C1NCCCC1NC(=O)[C@H]1C[C@@H](c2c(-c3ccc(F)cc3)[nH]c3c(F)cc(F)cc32)C1` (some centres unmarked) [Compound 249], less than 6.00; with `O=C(NCC(F)(F)F)[C@H]1C[C@@H](c2c(-c3ccc(F)cc3)[nH]c3c(F)cc(F)cc32)C1` [Compound 260], 6.00 to 6.60.
In the case of `O=C(N[C@@H](CO)C(F)(F)F)C1CC(Cc2c(-c3ccc(F)cc3)[nH]c3c(F)cc(F)cc23)C1` (some centres unmarked) [Compound 306], the pIC50 (Table 24, Compounds 287 to 465) is less than 6.00.
Same read-out and setting: to `C[C@H](CO)NC(=O)NC[C@H]1C[C@H](c2c(-c3ccc(F)cc3)[nH]c3c(F)cc(F)cc32)C1` [Compound 409] belongs less than 6.00; to `CON(C)C(=O)CN[C@H]1C[C@H](c2c(-c3ccc(F)cc3)[nH]c3c(F)cc(F)cc32)C1` [Compound 292], less than 6.00.
Regarding `Cn1nccc1CNC(=O)[C@H]1C[C@@H](c2c(-c3ccc(F)cc3)[nH]c3c(F)cc(F)cc32)C1` [Compound 265], the pIC50 under setting [1] is less than 6.00.
As to `C[C@H](NC(=O)C1CC(Cc2c(-c3ccc(F)cc3)[nH]c3c(F)cc(F)cc23)C1)C(C)(C)O` (some centres unmarked) [Compound 329], the pIC50 (Table 24, Compounds 287 to 465) is less than 6.00.
Regarding `O=C(NC[C@H]1C[C@H](c2c(-c3ccc(F)cc3)[nH]c3c(F)cc(F)cc32)C1)N[C@H]1CC[C@H]1O` [Compound 394], for the setting “Table 24, Compounds 287 to 465”, the pIC50 was less than 6.00.
The same measure, in the same setting: with `Cc1nn(C)cc1CNC(=O)C1CC(Cc2c(-c3ccc(F)cc3)[nH]c3c(F)cc(F)cc23)C1` (centres unmarked) [Compound 335] the figure was less than 6.00; with `O=C(NCC1CCOC1)O[C@H]1C[C@H](c2c(-c3ccc(F)cc3)[nH]c3c(F)cc(F)cc32)C1` (some centres unmarked) [Compound 384], less than 6.00; with `O=C(NC[C@H]1C[C@H](c2c(-c3ccc(F)cc3)[nH]c3c(F)cc(F)cc32)C1)N[C@H]1CC[C@@H]1O` [Compound 402], less than 6.00.
On the same count and under the same terms, with `N#CC(CO)NC(=O)C1CC(Cc2c(-c3ccc(F)cc3)[nH]c3c(F)cc(F)cc23)C1` (centres unmarked) [Compound 303] the figure was less than 6.00; with `O=C(NCC1CC1)O[C@H]1C[C@H](c2c(-c3ccc(F)cc3)[nH]c3c(F)cc(F)cc32)C1` [Compound 370], less than 6.00; with `O=C(NCC1CCOC1)C1CC(Cc2c(-c3ccc(F)cc3)[nH]c3c(F)cc(F)cc23)C1` (centres unmarked) [Compound 330], less than 6.00.
With `NC(=O)CNC(=O)[C@H]1C[C@@H](c2c(-c3ccc(F)cc3)[nH]c3c(F)cc(F)cc32)C1` [Compound 250], the pIC50 under setting [1] was less than 6.00.
On to `O=C(NC1(CO)CC1)[C@H]1C[C@@H](c2c(-c3ccc(F)cc3)[nH]c3c(F)cc(F)cc32)C1` [Compound 253], for which, under setting [1], the pIC50 is less than 6.00.
Consider `O=C(NC1CCOC1)O[C@H]1C[C@H](c2c(-c3ccc(F)cc3)[nH]c3c(F)cc(F)cc32)C1` (some centres unmarked) [Compound 382], for which the negative-log IC50 (pIC50) (Table 24, Compounds 287 to 465) is less than 6.00.
